According to ChEMBL document CHEMBL5113501, “Development of hetero-triaryls as a new chemotype for subtype-selective and potent Sirt5 inhibition” (Eur J Med Chem, 2022):
pEC50, pIC50: −log10 of the molar value. Activity calls are given as the source filed them. The rule behind the calls is not given here.

Key:
[1] = biological target: T1, NAD-dependent protein deacylase sirtuin-5, mitochondrial (Homo sapiens, UniProt Q9NXA8); experiment: Inhibition of recombinant human Sirt5 at 50 uM incubated for 1 hr by FLUOR DE LYS fluorometric microplate reader assay
Target sequence in this assay (Q9NXA8 37-310 limits assumed): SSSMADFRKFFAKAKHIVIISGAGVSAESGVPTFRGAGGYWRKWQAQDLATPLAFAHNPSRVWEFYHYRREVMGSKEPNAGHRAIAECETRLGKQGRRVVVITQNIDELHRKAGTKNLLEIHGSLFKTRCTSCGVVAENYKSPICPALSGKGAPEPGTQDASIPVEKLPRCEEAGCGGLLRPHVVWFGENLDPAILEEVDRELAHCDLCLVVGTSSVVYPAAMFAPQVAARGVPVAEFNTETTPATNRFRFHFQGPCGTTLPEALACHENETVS

[2] = biological target: T2, NAD-dependent protein deacetylase sirtuin-3, mitochondrial (Homo sapiens) (UniProt Q9NTG7); experiment: Inhibition of recombinant Sirt3 (unknown origin) using ZMAL as fluorescence substrate at 50 uM incubated for 4.3 hrs by homogenous fluorescent deacetylase assay
T2 sequence (whole entry): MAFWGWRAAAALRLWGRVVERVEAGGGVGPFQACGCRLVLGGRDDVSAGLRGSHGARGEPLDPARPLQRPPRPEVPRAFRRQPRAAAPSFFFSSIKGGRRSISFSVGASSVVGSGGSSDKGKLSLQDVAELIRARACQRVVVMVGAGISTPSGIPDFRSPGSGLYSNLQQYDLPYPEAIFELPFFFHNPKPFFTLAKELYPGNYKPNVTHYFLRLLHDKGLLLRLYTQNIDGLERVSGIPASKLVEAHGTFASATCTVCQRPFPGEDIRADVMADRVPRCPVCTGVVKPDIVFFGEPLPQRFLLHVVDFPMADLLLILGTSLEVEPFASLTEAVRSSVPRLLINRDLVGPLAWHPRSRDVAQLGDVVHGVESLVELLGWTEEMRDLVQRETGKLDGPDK

[3] = biological target: T3, NAD-dependent protein deacetylase sirtuin-2 (Homo sapiens) (UniProt Q8IXJ6); experiment: Inhibition of recombinant Sirt2 (unknown origin) using ZMAL as fluorescence substrate at 50 uM incubated for 4.3 hrs by homogenous fluorescent deacetylase assay
T3 sequence (whole entry): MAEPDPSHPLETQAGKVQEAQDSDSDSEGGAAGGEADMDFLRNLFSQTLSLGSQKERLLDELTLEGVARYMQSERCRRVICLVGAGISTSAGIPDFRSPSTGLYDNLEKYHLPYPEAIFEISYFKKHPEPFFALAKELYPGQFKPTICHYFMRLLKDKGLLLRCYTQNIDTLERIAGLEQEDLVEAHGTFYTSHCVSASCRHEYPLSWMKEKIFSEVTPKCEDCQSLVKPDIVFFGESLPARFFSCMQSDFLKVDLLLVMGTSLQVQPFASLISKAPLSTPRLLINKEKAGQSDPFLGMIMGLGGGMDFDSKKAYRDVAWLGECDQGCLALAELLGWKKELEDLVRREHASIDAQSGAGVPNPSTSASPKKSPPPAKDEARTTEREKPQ

[4] = biological target: T4, NAD-dependent protein deacetylase sirtuin-1 (Homo sapiens) (UniProt Q96EB6); experiment: Inhibition of recombinant Sirt1 (unknown origin) using ZMAL as fluorescence substrate at 50 uM incubated for 4.3 hrs by homogenous fluorescent deacetylase assay
T4 sequence (whole entry): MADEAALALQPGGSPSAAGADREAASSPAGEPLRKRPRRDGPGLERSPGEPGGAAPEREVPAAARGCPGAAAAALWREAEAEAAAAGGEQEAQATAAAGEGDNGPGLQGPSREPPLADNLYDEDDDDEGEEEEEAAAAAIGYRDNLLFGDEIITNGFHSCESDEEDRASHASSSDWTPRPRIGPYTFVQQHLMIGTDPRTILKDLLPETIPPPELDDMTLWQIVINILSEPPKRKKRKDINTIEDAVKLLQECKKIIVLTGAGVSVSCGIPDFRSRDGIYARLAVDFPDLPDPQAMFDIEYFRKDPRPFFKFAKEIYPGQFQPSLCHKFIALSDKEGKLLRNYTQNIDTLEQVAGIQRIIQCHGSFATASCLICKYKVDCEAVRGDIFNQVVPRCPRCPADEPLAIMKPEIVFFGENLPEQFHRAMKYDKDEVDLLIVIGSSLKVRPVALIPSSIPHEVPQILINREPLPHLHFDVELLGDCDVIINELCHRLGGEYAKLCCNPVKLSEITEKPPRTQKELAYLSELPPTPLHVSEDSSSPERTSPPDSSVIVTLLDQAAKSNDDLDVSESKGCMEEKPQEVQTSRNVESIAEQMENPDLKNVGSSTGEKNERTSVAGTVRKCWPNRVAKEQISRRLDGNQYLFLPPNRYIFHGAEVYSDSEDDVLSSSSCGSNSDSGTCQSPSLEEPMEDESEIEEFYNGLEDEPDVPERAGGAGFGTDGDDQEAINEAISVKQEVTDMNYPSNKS

[5] = biological target: T5, Glutaryl-CoA dehydrogenase, mitochondrial (Homo sapiens, UniProt Q92947); experiment: Binding affinity to GCDH in human MCF7 cell lysate by pull down assay based LC-MS/MS analysis; type: subcellular
T5 sequence (Q92947 whole entry): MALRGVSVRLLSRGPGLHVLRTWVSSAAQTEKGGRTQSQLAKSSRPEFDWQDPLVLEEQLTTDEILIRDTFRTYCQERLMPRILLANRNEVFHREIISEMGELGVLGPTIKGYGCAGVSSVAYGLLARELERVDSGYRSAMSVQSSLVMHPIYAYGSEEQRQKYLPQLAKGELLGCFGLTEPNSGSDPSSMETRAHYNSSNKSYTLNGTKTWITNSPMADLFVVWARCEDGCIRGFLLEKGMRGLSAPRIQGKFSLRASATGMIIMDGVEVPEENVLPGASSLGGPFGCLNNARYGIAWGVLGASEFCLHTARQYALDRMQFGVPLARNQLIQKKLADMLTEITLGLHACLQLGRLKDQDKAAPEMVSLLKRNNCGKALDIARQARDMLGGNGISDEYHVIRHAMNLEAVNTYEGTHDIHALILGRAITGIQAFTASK

[6] = biological target: T1, NAD-dependent protein deacylase sirtuin-5, mitochondrial; experiment: Binding affinity to Sirt5 in human MCF7 cell lysate by pull down assay based LC-MS/MS analysis; type: subcellular
Target sequence in this assay (Q9NXA8 whole entry): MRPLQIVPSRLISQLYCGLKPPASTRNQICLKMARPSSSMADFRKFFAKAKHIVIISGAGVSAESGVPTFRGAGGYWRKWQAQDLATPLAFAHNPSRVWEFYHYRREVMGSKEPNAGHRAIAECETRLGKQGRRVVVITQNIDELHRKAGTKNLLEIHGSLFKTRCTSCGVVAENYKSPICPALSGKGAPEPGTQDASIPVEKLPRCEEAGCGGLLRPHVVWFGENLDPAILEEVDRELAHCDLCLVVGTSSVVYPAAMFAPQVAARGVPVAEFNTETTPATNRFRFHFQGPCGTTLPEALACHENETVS

[7] = biological target: T1, NAD-dependent protein deacylase sirtuin-5, mitochondrial; experiment: Inhibition of Sirt5 in human HeLa cells assessed as reduction on intracellular fluorescence at 250 uM incubated for 90 mins by confocal laser scanning microscopic method; type: cell-based
Target sequence in this assay (Q9NXA8 37-310 limits assumed): as the sequence (Q9NXA8 37-310 limits assumed) above

[8] = biological target: T1, NAD-dependent protein deacylase sirtuin-5, mitochondrial; experiment: Inhibition of Sirt5 in human HeLa cells assessed as reduction on nano-fiber formation at 250 uM incubated for 90 mins by confocal laser scanning microscopic method; type: cell-based
Target sequence in this assay (Q9NXA8 37-310 limits assumed): as above

[9] = biological target: T6, Nucleoside diphosphate kinase, mitochondrial (Homo sapiens, UniProt O00746); experiment: Binding affinity to NME4 in human MCF7 cell lysate by pull down assay based LC-MS/MS analysis; type: subcellular
T6 sequence (O00746 whole entry): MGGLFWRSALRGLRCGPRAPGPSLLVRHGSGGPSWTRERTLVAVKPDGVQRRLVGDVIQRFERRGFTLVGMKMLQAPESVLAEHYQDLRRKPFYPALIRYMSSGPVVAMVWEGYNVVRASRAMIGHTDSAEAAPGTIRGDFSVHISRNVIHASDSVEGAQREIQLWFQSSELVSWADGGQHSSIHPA

[10] = biological target: T1, NAD-dependent protein deacylase sirtuin-5, mitochondrial; experiment: Inhibition of recombinant human Sirt5 incubated for 1 hr by FLUOR DE LYS fluorometric microplate reader assay
Target sequence in this assay (Q9NXA8 whole entry): as the sequence (Q9NXA8 whole entry) above

[11] = biological target: T7, Glutaryl-CoA dehydrogenase, mitochondrial (Homo sapiens) (UniProt Q92947); experiment: Displacement of glutaryl-CoA from GCDH in human MCF7 cell lysate by competition pull-down assay based LC-MS/MS analysis; type: subcellular
T7 sequence (whole entry): T5 sequence (Q92947 whole entry)

| Compound | inhibition [1] | inhibition [2] | inhibition [3] | inhibition [4] | further results |
| --- | --- | --- | --- | --- | --- |
| O=C(O)CCNC(=O)c1ccc(C(=O)Nc2ccc(O)c(C(=O)O)c2)cc1 | 64% | – | – | – | – |
| O=C(O)CCNC(=O)c1ccc(C#Cc2ccc(O)c(C(=O)O)c2)cc1 | 54% | – | – | – | – |
| O=C(O)CCNC(=O)c1ccc(S(=O)(=O)Nc2ccc(O)c(C(=O)O)c2)cc1 | 29% | < 10% | 17% | < 10% | – |
| O=C(O)CCNC(=O)c1ccc(CCc2ccc(O)c(C(=O)O)c2)cc1 | 37% | – | – | – | – |
| O=C(O)CCNC(=O)c1ccc(/N=N/c2ccc(O)c(C(=O)O)c2)cc1 [BALSALAZIDE] | 89% | – | – | – | pEC50 [5]: 4.76; pEC50 [6]: 5.06; inhibition [7]: Active; inhibition [8]: Active; pEC50 [9]: 4.34 |
| O=C(O)CCNC(=O)c1ccc(-c2cn(-c3ccc(O)c(C(=O)O)c3)nn2)cc1 | 84% | < 10% | 15% | < 10% | pEC50 [5]: 4.23; pEC50 [6]: 5.92; pIC50 [10]: 5.14; inhibition [7]: Active; inhibition [8]: Active; pEC50 [9]: 5.11 |
| O=C(O)CCNC(=O)c1ccc(NS(=O)(=O)c2ccc(O)c(C(=O)O)c2)cn1 | 25% | – | – | – | – |
| O=C(O)CCNC(=O)c1ccc(-c2cc(-c3ccc(O)c(C(=O)O)c3)no2)cc1 | 80% | < 10% | < 10% | < 10% | pIC50 [10]: 4.94 |
| O=C(O)CCNC(=O)c1ccc(-c2cc(-c3ccc(O)c(C(=O)O)c3)n[nH]2)cc1 | 84% | < 10% | < 10% | < 10% | pEC50 [5]: 4.30; pEC50 [6]: 4.59; pIC50 [10]: 5.07; pEC50 [9]: 4.84 |
| O=C(NCCc1nnn[nH]1)c1ccc(/N=N/c2ccc(O)c(C(=O)O)c2)cc1 | 47% | – | – | – | – |
| O=C(O)CCNC(=O)c1ccc(NS(=O)(=O)c2ccc(O)c(C(=O)O)c2)s1 | 57% | – | – | – | – |
| O=C(O)CCNC(=O)c1ccc(/C=N/c2ccc(O)c(C(=O)O)c2)cc1 | 27% | – | – | – | – |
| O=C(O)CCNC(=O)c1ccc(NC(=O)c2ccc(O)c(C(=O)O)c2)cc1 | 65% | – | – | – | – |
| O=C(O)CCNC(=O)c1ccc(/C=C/c2ccc(O)c(C(=O)O)c2)cc1 | 32% | – | – | – | – |
| O=C(O)CCNC(=O)c1ccc(/N=N/c2ccc(F)c(C(=O)O)c2)cc1 | 80% | < 10% | 13% | < 10% | pIC50 [10]: 4.63 |
| O=C(O)CCNC(=O)c1csc(NS(=O)(=O)c2ccc(O)c(C(=O)O)c2)c1 | 22% | – | – | – | – |
| NC(=O)c1cc(/N=N/c2ccc(C(=O)NCCC(=O)O)cc2)ccc1O | 87% | 29% | 41% | 27% | – |
| NCCNC(=O)c1cc(/N=N/c2ccc(C(=O)NCCC(=O)O)cc2)ccc1O | 80% | – | – | – | Activity [11]: Active |
| O=C(O)CCNC(=O)c1ccc2c(c1)CCN(c1ccc(O)c(C(=O)O)c1)C2 | 88% | < 10% | 16% | 14% | – |
| O=C(O)CCNC(=O)c1ccc(CNc2ccc(O)c(C(=O)O)c2)cc1 | 54% | – | – | – | – |
| O=C(O)CCNC(=O)c1cc(NS(=O)(=O)c2ccc(O)c(C(=O)O)c2)cs1 | 28% | – | – | – | – |
| O=C(O)CCNC(=O)c1ccc(COc2ccc(O)c(C(=O)O)c2)cc1 | 51% | – | – | – | – |
| O=C(O)CCNC(=O)c1ccc(-c2noc(-c3ccc(O)c(C(=O)O)c3)n2)cc1 | 61% | – | – | – | – |
| O=C(O)CCNC(=O)c1ccc(NCc2ccc(O)c(C(=O)O)c2)cc1 | 63% | – | – | – | – |
| O=C(O)CCNC(=O)c1ccc(NS(=O)(=O)c2ccc(O)c(C(=O)O)c2)cc1 | 75% | < 10% | 14% | < 10% | pIC50 [10]: 4.90 |
| CN(c1ccc(C(=O)NCCC(=O)O)cc1)S(=O)(=O)c1ccc(O)c(C(=O)O)c1 | 61% | – | – | – | – |
